{"source": "patent US9861703B2", "about": "(Jinan Platinum Pharmatech Co. Ltd., priority 2013, dated 2018)", "key": {"[1]": {"test_system": "human liver cancer cell line H7402", "experiment": "MTT proliferation inhibition, H7402", "type": "cell-based", "details": "48 h", "experimental": "(§1) Human leukemia cell line K562, clear-cell ovarian carcinoma cell line ES-2, human prostate cancer cell line PC-3, human breast cancer cell line MCF-7, cell line Hela, human liver cancer cell line H7402 and human ovarian cancer cell line 3-AO were transferred into a culture flask and were cultured in a medium at 37° C. in a 5% CO2 and saturation humidity. One bottle of cells in logarithmic growth phase was picked out and was blew and beaten to be uniform with a pipette, then took some cell suspension solution to prepare blood counting plate smear to count cells under inverted microscope, and then adjusted the cell number to be 1×10^5/mL by adding some culture medium. Cells were seeded on a 96-well plate on which also drug tests performed. Blank control group, negative control group, positive control group and drug test group were established on the plate while the surrounding wells of the plate were not used (but filled with sterile PBS), wherein the blank control groups were prepared by addition of culture medium 150 μL per well, the negative control groups were prepared by addition of cell suspension solution 100 μL per well and culture medium 50 μL per well, the positive control groups were prepared by addition of cell suspension solution 100 μL per well and positive control drug solution 50 μL per well, the drug test groups were prepared by addition of cell suspension solution 100 μL per well and test compound solution 50 μL per well, and there were 5 different concentrations of drug in the positive control group and the drug test group respectively: 0.01, 0.1, 1, 10, 100 μmol·L^−1, each concentration was established with 3 parallel wells. After the drug was added, the 96-well plate was incubated for 48 h at 37° C. in a CO2 incubator of 5% CO2 and saturation humidity. Upon completion of the incubation, 20 μL MTT solution (concentration was 5 mg/mL) was added to each well and incubated for an additional 4 h, and after the 96-well plate was centrifuged at 2000 rpm for 30 min, medium of each well was suck out carefully and removed and 100 μL DMSO was added instead, followed by vibrating on a tablet shaker for 15 min to re-dissolve formazan crystals completely. OD value of each well was measured at 570 nm wavelength using an enzyme-linked immunosorbent assay reader to calculate cellular proliferation inhibitory ratio of each drug in different concentrations. And half-inhibitory concentration (IC50) was calculated using statistical software SPSS 16.0, wherein the cellular proliferation inhibitory ratio can be calculated as following equation: […]"}, "liver cancer H22": {"test_system": "liver cancer H22", "experiment": "Inhibition assay of intravenous administration against liver cancer H22 (Example 33)", "details": "tail intravenous injection; for Number of mice alive: 7 mice per group, two cycles; for Tumor weight / inhibitory ratio (%): sacrificed after 13 days", "experimental": "Extracted the ascites from H22 ascites tumour bearing mice, washed the ascites with sterile PBS for three times and then resuspended the cells with sterile PBS (cells counts: 3.75×10^7 cells/mL), inoculated it into right oxter of Kunming mice 100 uL per mouse.\nThe H22 tumor-bearing mice were randomized to 4 groups (7 mice per group) after being weighted. […] The size of tumor was measured by using a vernier calliper and weight of mouse by using an electronic balance at the beginning and ending of every cycle, then calculated their mean value. The mice were sacrificed after 13 days and the tumors were taken out and weighted. Tumor volume and inhibitory ratio were calculated as the following equation (L and W referred to length and width of tumor respectively): […]"}, "H22 tumor cells": {"test_system": "H22 tumor cells", "experiment": "Activities of compounds in H22 tumor cells bearing Kunming mice models (Example 34)", "details": "for anti-tumor growth activity: FIGS. 11-14; for Number of mice alive: 8 mice; for Tumor growth inhibition (%) / Tumor weight: after two cycles", "procedure": "The ascites was extracted from H22 tumour bearing mice with well growth, followed by adding sterile PBS to dilute the ascites to a concentration of 8.5×10^7 cells/mL. 100 uL of the cells solution was suck up by a 1 mL sterile injector to inoculate into right oxter of mice. After 3 days, the mice were weighted and randomized to several groups (almost 8 mice per group, and a bit more in control group). These mice were administrated a predetermined dosage by intravenous or oral gavage with two days off when having administrated for 5 days until two cycles one of which had 7 days. The body weight of mouse was recorded at the beginning and ending of every cycle,\nAfter being administrated for two cycles, the mice were weighted and recorded, then sacrificed by cervical dislocation to get lung, liver and spleen weighted respectively.\nOverall difference was calculated by the function of one-way analysis of variance (One-Way ANOVA) in Origin 7.5 software; and t-test was used for pair-comparison between drug administrated group and blank group, and the inhibitory ratio of drug in each group was calculated based on the following equation: inhibitory ratio (100%)=(mean tumor weight of control group−mean tumor weight of drug administrated group)/mean tumor weight of control group×100."}, "[2]": {"test_system": "clear-cell ovarian carcinoma cell line ES-2", "experiment": "MTT proliferation inhibition, ES-2", "type": "cell-based", "details": "for EC50: 48 h", "experimental": "as §1"}, "[3]": {"details": "intravenous injection, 55 mg/kg/d (0.1 mmol/kg/d) (by order of dosage table)"}, "[4]": {"details": "intravenous injection, 79 mg/kg/d (0.15 mmol/kg/d) (by order of dosage table)"}, "[5]": {"details": "oral gavage, 130 mg/kg/d ([…]) per dosage table, group printed *BC-02(70)"}, "[6]": {"details": "intravenous injection, 50 mg/kg/d (0.1 mmol/kg/d)"}, "[7]": {"details": "oral gavage, 120 mg/kg/d ([…]) per dosage table, group printed *BC-01(50)"}}}
{"smiles": "CC(C)C[C@H](NC(=O)[C@@H](O)[C@H](N)Cc1ccccc1)C(=O)NCC(=O)OCn1cc(F)c(=O)[nH]c1=O.Cl", "note": "[BC-02, (5-fluoro-2,4-dioxo-3,4-dihydropyrimidinyl-1(2H))methyl-2-((S)-2-((2S,3R)-3-amino-2-hydroxy-4-phenylbutanamido)-4-methylpentanamido)acetate hydrochloride]", "values": [{"measurement": "EC50", "setting": "[1]", "value": 11, "unit": "µM"}, {"measurement": "Number of mice alive", "setting": "liver cancer H22; 70 mg/kg/d", "value": 7}, {"measurement": "Body weight(g) Beginning", "setting": "liver cancer H22; 70 mg/kg/d", "value": "31.81 ± 4.99", "unit": "g"}, {"measurement": "Body weight(g) Ending", "setting": "liver cancer H22; 70 mg/kg/d", "value": "32.83 ± 4.64", "unit": "g"}, {"measurement": "Tumor weight", "setting": "liver cancer H22; 70 mg/kg/d", "value": "0.63 ± 0.01", "unit": "g"}, {"measurement": "inhibitory ratio (%)", "setting": "liver cancer H22; 70 mg/kg/d", "value": 54.31, "unit": "%"}, {"measurement": "tumor appearance until the end of the experiment", "setting": "H22 tumor cells; 0.15 mmol/kg/d, intravenous", "value": "no tumor appeared"}, {"measurement": "anti-tumor growth activity", "setting": "H22 tumor cells", "value": "excellent anti-tumor growth activity"}, {"measurement": "Number of mice alive", "setting": "H22 tumor cells; [3]", "value": 7}, {"measurement": "Tumor growth inhibition (%)", "setting": "H22 tumor cells; [3]", "value": 89.52, "unit": "%"}, {"measurement": "Tumor weight", "setting": "H22 tumor cells; [3]", "value": "0.06 ± 0.11", "unit": "g"}, {"measurement": "Body weight(g) Beginning", "setting": "H22 tumor cells; [3]", "value": "25.67 ± 2.62", "unit": "g"}, {"measurement": "Body weight(g) Ending", "setting": "H22 tumor cells; [3]", "value": "28.35 ± 3.71", "unit": "g"}, {"measurement": "Number of mice alive", "setting": "H22 tumor cells; [4]", "value": 7}, {"measurement": "Tumor growth inhibition (%)", "setting": "H22 tumor cells; [4]", "value": 100, "unit": "%"}, {"measurement": "Tumor weight", "setting": "H22 tumor cells; [4]", "value": "0.0 ± 0.0", "unit": "g"}, {"measurement": "Body weight(g) Beginning", "setting": "H22 tumor cells; [4]", "value": "30.32 ± 4.42", "unit": "g"}, {"measurement": "Body weight(g) Ending", "setting": "H22 tumor cells; [4]", "value": "31.13 ± 3.55", "unit": "g"}, {"measurement": "Number of mice alive", "setting": "H22 tumor cells; [5]", "value": 7}, {"measurement": "Tumor growth inhibition (%)", "setting": "H22 tumor cells; [5]", "value": 89.76, "unit": "%"}, {"measurement": "Tumor weight", "setting": "H22 tumor cells; [5]", "value": "0.06 ± 0.11", "unit": "g"}, {"measurement": "Body weight(g) Beginning", "setting": "H22 tumor cells; [5]", "value": "27.98 ± 3.73", "unit": "g"}, {"measurement": "Body weight(g) Ending", "setting": "H22 tumor cells; [5]", "value": "27.49 ± 4.94", "unit": "g"}, {"measurement": "proliferation inhibition activity against ES-2", "setting": "[2]", "value": "great proliferation inhibition activity"}, {"measurement": "EC50", "setting": "[2]", "value": 1.34, "unit": "µM"}]}
{"smiles": "CC(C)C[C@H](NC(=O)[C@@H](O)[C@H](N)Cc1ccccc1)C(=O)OCn1cc(F)c(=O)[nH]c1=O.Cl", "note": "[BC-01, (S)-(5-fluoro-2,4-dioxo-3,4-dihydropyrimidinyl-1(2H))methyl-2-((2S,3R)-3-(amino)-2-hydroxy-4-phenylbutyryl)-4-methylpentanoate hydrochloride]", "values": [{"measurement": "EC50", "setting": "[1]", "value": 1.86, "unit": "µM"}, {"measurement": "Number of mice alive", "setting": "liver cancer H22; 50 mg/kg/d", "value": 7}, {"measurement": "Body weight(g) Beginning", "setting": "liver cancer H22; 50 mg/kg/d", "value": "30.32 ± 1.57", "unit": "g"}, {"measurement": "Body weight(g) Ending", "setting": "liver cancer H22; 50 mg/kg/d", "value": "31.53 ± 4.71", "unit": "g"}, {"measurement": "Tumor weight", "setting": "liver cancer H22; 50 mg/kg/d", "value": "0.58 ± 0.12", "unit": "g"}, {"measurement": "inhibitory ratio (%)", "setting": "liver cancer H22; 50 mg/kg/d", "value": 57.66, "unit": "%"}, {"measurement": "Number of mice alive", "setting": "liver cancer H22; 70 mg/kg/d", "value": 7}, {"measurement": "Body weight(g) Beginning", "setting": "liver cancer H22; 70 mg/kg/d", "value": "30.00 ± 1.15", "unit": "g"}, {"measurement": "Body weight(g) Ending", "setting": "liver cancer H22; 70 mg/kg/d", "value": "31.05 ± 1.78", "unit": "g"}, {"measurement": "Tumor weight", "setting": "liver cancer H22; 70 mg/kg/d", "value": "0.37 ± 0.08", "unit": "g"}, {"measurement": "inhibitory ratio (%)", "setting": "liver cancer H22; 70 mg/kg/d", "value": 73.00, "unit": "%"}, {"measurement": "anti-tumor growth activity", "setting": "H22 tumor cells", "value": "excellent anti-tumor growth activity"}, {"measurement": "Number of mice alive", "setting": "H22 tumor cells; intravenous injection, 50 mg/kg/d (0.1 mmol/kg/d), two cycles", "value": 8}, {"measurement": "Tumor growth inhibition (%)", "setting": "H22 tumor cells; [6]", "value": 84.38, "unit": "%"}, {"measurement": "Tumor weight", "setting": "H22 tumor cells; [6]", "value": "0.09 ± 0.14", "unit": "g"}, {"measurement": "Body weight(g) Beginning", "setting": "H22 tumor cells; [6]", "value": "31.52 ± 3.63", "unit": "g"}, {"measurement": "Body weight(g) Ending", "setting": "H22 tumor cells; [6]", "value": "31.78 ± 5.76", "unit": "g"}, {"measurement": "Number of mice alive", "setting": "H22 tumor cells; [7]", "value": 7}, {"measurement": "Tumor growth inhibition (%)", "setting": "H22 tumor cells; [7]", "value": 79.52, "unit": "%"}, {"measurement": "Tumor weight", "setting": "H22 tumor cells; [7]", "value": "0.12 ± 0.16", "unit": "g"}, {"measurement": "Body weight(g) Beginning", "setting": "H22 tumor cells; [7]", "value": "27.87 ± 2.55", "unit": "g"}, {"measurement": "Body weight(g) Ending", "setting": "H22 tumor cells; [7]", "value": "29.50 ± 2.15", "unit": "g"}, {"measurement": "EC50", "setting": "[2]", "value": 2.53, "unit": "µM"}]}
